Results from ChEMBL document CHEMBL2074037, “Molecular characterization and tissue distribution of a new organic anion transporter subtype (oatp3) that transports thyroid hormones and taurocholate and comparison with oatp2” (J Biol Chem, 1998).

B1: Solute carrier organic anion transporter family member 1A5 (Rattus norvegicus) (protein)
chain: MGETEKRVATHEVRCFSKIKMFLLALTWAYVSKSLSGIYMNTMLTQIERQFDIPTSIVGFINGSFEIGNLLLIIFVSYFGTKLHRPIMIGVGCVIMGLGCFLMSLPHFLMGRYEYETTISPTSNLSSNSFLCMENRSQTLKPTQDPAECIKEMKSLMWIYVLVGNIIRGIGETPIMPLGISYIEDFAKSENSPLYIGILETGKVFGPIVGLLLGSFCASIYVDTGSVNTDDLTITPTDTRWVGAWWIGFLICAGVNILSSIPFFFFPKTLPKEGLQDDVDGTNNDKEEKHREKAKEENRGITKDFLPFMKSLSCNPIYMLLILTSVLQINAFINMFTFLPKYLEQQYGKSTAEVVLLIGVYNLPPICIGYLLIGFIMKKFKITVKKAAYMAFCLSLFEYLLYFLHFMITCDNFPVAGLTASYEGVHHPLYVENKVLADCNRGCSCSTNSWDPVCGDNGLAYMSACLAGCKKSVGTGTNMVFQNCSCIRSSGNSSAVLGLCKKGPECANKLQYFLIMSVIGSFIYSITAIPGYMVLLRCIKPEEKSLGIGLHAFCTRVFAGIPAPIYFGALIDRTCLHWGTLKCGEPGACRMYNINNFRRIYLVLPAALRGSSYLPALFILILMRKFQFPGEIDSSETELAEMKITVKKSECTDVHGSPQVENDGELKTRL
B2: Solute carrier organic anion transporter family member 1A4 (Rattus norvegicus) (protein)
chain: MGKSEKRVATHGVRCFAKIKMFLLALTCAYVSKSLSGTYMNSMLTQIERQFGIPTSIVGLINGSFEIGNLLLIIFVSYFGTKLHRPIMIGVGCAVMGLGCFLISLPHFLMGQYEYETILPTSNVSSNSFFCVENRSQTLNPTQDPSECVKEMKSLMWIYVLVGNIIRGIGETPIMPLGISYIEDFAKSENSPLYIGILETGMTIGPLIGLLLASSCANIYVDIESVNTDDLTITPTDTRWVGAWWIGFLVCAGVNILTSFPFFFFPKTLPKEGLQENVDGTENAKEKKHRKKAKEEKRGITKDFFVFMKSLSCNPIYMLFILISVLQFNAFINSFTFMPKYLEQQYGKSTAEVVFLMGLYMLPPICLGYLIGGLIMKKFKVTVKKAAHLAFWLCLSEYLLSFLSYVMTCDNFPVAGLTTSYEGVQHQLYVENKVLADCNTRCNCSTNTWDPVCGDNGLAYMSACLAGCEKSVGTGTNMVFQNCSCIQSSGNSSAVLGLCNKGPDCANKLQYFLIIAIFGCFIYSLAGIPGYMVLLRCIKSEEKSLGVGLHAFCIRILAGIPAPIYFGALIDRTCLHWGTLKCGEPGACRMYDINSFRRLYLGLPAALRGASFVPAFFILRLTRTFQFPGDIESSKTDHAEMKLTLKESECTEVLRSKVTED

Assays:
[1] = molecular target: T1, Solute carrier organic anion transporter family member 1A4 (Rattus norvegicus, UniProt O35913); test: TP_TRANSPORTER: inhibition of Taurocholate uptake (Taurochorate: 1 uM, T3: 200 uM, data not shown) in Xenopus laevis oocytes; format: functional, cell-based; conditions: oocyte
T1 sequence (O35913 whole entry): B2 chain

[2] = molecular target: T1, Solute carrier organic anion transporter family member 1A4; test: TP_TRANSPORTER: inhibition of Taurocholate uptake (Taurochorate: 1 uM, T4: 200 uM, data not shown) in Xenopus laevis oocytes; format: functional, cell-based; conditions: oocyte
[3] = molecular target: T1, Solute carrier organic anion transporter family member 1A4; test: TP_TRANSPORTER: inhibition of Taurocholate uptake (Taurochorate: 1 uM, BSP: 200 uM, data not shown) in Xenopus laevis oocytes; format: functional, cell-based; conditions: oocyte
[4] = molecular target: T1, Solute carrier organic anion transporter family member 1A4; test: TP_TRANSPORTER: inhibition of Taurocholate uptake (Taurochorate: 1 uM, E217betaG: 200 uM, data not shown) in Xenopus laevis oocytes; format: functional, cell-based; conditions: oocyte
[5] = substrate: N[C@@H](Cc1cc(I)c(Oc2cc(I)c(O)c(I)c2)c(I)c1)C(=O)O; test: (§1) TP_TRANSPORTER: uptake in Xenopus laevis oocytes; format: functional, cell-based, Oocyte
[6] = substrate: N[C@@H](Cc1cc(I)c(Oc2ccc(O)c(I)c2)c(I)c1)C(=O)O; test: as §1; format: functional, cell-based, Oocyte

Row | Molecule | Km [5] [µM] | Km [6] [µM] | also measured
1 | N[C@@H](Cc1cc(I)c(Oc2ccc(O)c(I)c2)c(I)c1)C(=O)O [LIOTHYRONINE] | – | – | Activity [1]: inhibitor [+]
2 | N[C@@H](Cc1cc(I)c(Oc2cc(I)c(O)c(I)c2)c(I)c1)C(=O)O [LEVOTHYROXINE] | – | – | Activity [2]: inhibitor [+]
3 | O=C1OC(c2ccc(O)c(S(=O)(=O)[O-])c2)(c2ccc(O)c(S(=O)(=O)[O-])c2)c2c(Br)c(Br)c(Br)c(Br)c21.[Na+].[Na+] [SULFOBROMOPHTHALEIN SODIUM] | – | – | Activity [3]: inhibitor [+]
4 | C[C@]12CC[C@@H]3c4ccc(O)cc4CC[C@H]3[C@@H]1CC[C@@H]2O[C@@H]1O[C@H](C(=O)O)[C@@H](O)[C@H](O)[C@H]1O [ESTRADIOL 17B GLUCURONIDE] | – | – | Activity [4]: inhibitor [+]
5 | B1 | 4.93 | 7.33 | –
6 | B2 | 6.53 | 5.87 | –
